The results in this text go back to ChEMBL document CHEMBL5352421, “Identification of novel piperazine-tethered phthalazines as selective CDK1 inhibitors endowed with in vitro anticancer activity toward the pancreatic cancer” (Eur J Med Chem, 2022).

The nature of test [1]: Antiproliferative activity against human PL45 cells assessed as growth inhibition incubated for 24 hrs by MTT assay. It is filed as functional, cell-based. The note with it: PL45, 24 h.
In test [2] the test system is BT-549. In words: Antiproliferative activity against human BT-549 cells assessed as growth inhibition incubated at 10 uM for 24 hrs by MTT assay relative to control. Particulars: read-out: GI. It is filed as functional.
In test [3] the test system is A-375. In words: Antiproliferative activity against human A-375 cells assessed as growth inhibition incubated at 10 uM for 24 hrs by MTT assay relative to control. In kind it is functional. Particulars: read-out: GI.
The nature of test [4]: Selectivity index, ratio of IC50 for CDK5 (unknown origin) to CDK1 (unknown origin).
Test [5] has as its system HT-29. The test can be described thus: Antiproliferative activity against human HT-29 cells assessed as growth inhibition incubated at 10 uM for 24 hrs by MTT assay relative to control. In kind it is functional. The note with it: read-out: GI.
The test system of test [6] is KG-1. The test can be described thus: Antiproliferative activity against human KG-1 cells assessed as growth inhibition incubated at 10 uM for 24 hrs by MTT assay relative to control. The note with it: read-out: GI. In kind it is functional.
Test [7] deals with SK-MEL-1. The test can be described thus: Antiproliferative activity against human SK-MEL-1 cells assessed as growth inhibition incubated at 10 uM for 24 hrs by MTT assay relative to control. It is filed as functional. The note with it: read-out: GI.
Test [8] in a line: Selectivity index, ratio of IC50 for CDK2 (unknown origin) to CDK1 (unknown origin).
Test [9] concerns the target Cyclin-dependent kinase 2 (Homo sapiens, UniProt P24941). In words: Inhibition of CDK2 (unknown origin) by FRET assay.
Test [10] has as its target Insulin-like growth factor 1 receptor (Homo sapiens, UniProt P08069). The test can be described thus: Inhibition of IGF1R (unknown origin) by FRET assay.
For test [11], the target named is Cyclin-dependent kinase 5 (Homo sapiens, UniProt Q00535). The test can be described thus: Inhibition of CDK5 (unknown origin) by FRET assay.
Sequence of Cyclin-dependent kinase 5 (Q00535 whole entry): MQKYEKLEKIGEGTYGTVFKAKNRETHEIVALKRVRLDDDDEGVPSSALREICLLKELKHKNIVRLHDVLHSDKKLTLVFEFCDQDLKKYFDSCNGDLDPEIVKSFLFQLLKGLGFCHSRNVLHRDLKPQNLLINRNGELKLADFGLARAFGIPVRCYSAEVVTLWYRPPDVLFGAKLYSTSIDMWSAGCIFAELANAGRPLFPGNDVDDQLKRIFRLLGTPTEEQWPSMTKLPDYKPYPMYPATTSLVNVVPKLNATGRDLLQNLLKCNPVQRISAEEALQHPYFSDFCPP
Test [12] concerns the target Cyclin-dependent kinase 1 (Homo sapiens, UniProt P06493). In words: Inhibition of CDK1 (unknown origin) by FRET assay.
Test [13] concerns MCF7. In words: Antiproliferative activity against human MCF7 cells assessed as growth inhibition incubated at 10 uM for 24 hrs by MTT assay relative to control. It is filed as functional. Particulars: read-out: GI.
Test [14] relates to G-361. The test can be described thus: Antiproliferative activity against human G-361 cells assessed as growth inhibition incubated at 10 uM for 24 hrs by MTT assay relative to control. It is filed as functional. The note with it: read-out: GI.
The target in test [15] is Protein-tyrosine kinase 2-beta (Homo sapiens, UniProt Q14289). The test can be described thus: Inhibition of PTK2B (unknown origin) by FRET assay.
Sequence of Protein-tyrosine kinase 2-beta (Q14289 whole entry): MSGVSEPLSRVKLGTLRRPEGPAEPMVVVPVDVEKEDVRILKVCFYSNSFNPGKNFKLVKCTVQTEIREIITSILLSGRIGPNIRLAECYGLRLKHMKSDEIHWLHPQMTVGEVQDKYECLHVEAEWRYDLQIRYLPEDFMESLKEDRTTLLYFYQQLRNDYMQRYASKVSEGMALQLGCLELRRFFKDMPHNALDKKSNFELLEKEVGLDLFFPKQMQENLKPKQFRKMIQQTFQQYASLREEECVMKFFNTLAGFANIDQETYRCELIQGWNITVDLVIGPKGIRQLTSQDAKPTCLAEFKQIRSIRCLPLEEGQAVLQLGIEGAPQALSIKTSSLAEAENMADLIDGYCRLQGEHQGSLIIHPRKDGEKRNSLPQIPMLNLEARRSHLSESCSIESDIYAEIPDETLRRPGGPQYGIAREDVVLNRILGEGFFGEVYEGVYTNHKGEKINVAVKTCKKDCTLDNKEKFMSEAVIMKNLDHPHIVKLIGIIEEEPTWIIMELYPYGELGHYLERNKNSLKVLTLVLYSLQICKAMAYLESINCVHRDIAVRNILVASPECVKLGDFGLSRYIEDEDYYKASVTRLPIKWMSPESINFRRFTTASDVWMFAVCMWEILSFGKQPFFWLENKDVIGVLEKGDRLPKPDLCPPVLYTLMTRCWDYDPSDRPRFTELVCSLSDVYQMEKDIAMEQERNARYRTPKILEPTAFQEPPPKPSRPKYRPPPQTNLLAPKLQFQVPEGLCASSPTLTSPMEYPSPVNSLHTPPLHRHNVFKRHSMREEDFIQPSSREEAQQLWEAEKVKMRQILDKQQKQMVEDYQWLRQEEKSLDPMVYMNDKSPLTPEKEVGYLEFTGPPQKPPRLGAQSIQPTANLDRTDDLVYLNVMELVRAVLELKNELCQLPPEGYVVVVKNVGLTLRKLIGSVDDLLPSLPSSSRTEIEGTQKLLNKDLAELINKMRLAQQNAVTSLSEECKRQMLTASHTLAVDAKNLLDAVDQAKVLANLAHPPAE
Test [16] can be described thus: Antiproliferative activity against human PL45 cells assessed as growth inhibition incubated at 10 uM for 24 hrs by MTT assay relative to control. It is filed as functional. The note with it: read-out: GI.
Test [17] addresses Fibroblast growth factor receptor (Homo sapiens, UniProt P22607+P11362+P22455+P21802). The test can be described thus: Inhibition of FGFR (unknown origin) by FRET assay. In kind it is protein assay.
The target in test [18] is Serine/threonine-protein kinase B-raf (Homo sapiens, UniProt P15056). In words: Inhibition of BRAF (unknown origin) by FRET assay.
Sequence of Serine/threonine-protein kinase B-raf (P15056 whole entry): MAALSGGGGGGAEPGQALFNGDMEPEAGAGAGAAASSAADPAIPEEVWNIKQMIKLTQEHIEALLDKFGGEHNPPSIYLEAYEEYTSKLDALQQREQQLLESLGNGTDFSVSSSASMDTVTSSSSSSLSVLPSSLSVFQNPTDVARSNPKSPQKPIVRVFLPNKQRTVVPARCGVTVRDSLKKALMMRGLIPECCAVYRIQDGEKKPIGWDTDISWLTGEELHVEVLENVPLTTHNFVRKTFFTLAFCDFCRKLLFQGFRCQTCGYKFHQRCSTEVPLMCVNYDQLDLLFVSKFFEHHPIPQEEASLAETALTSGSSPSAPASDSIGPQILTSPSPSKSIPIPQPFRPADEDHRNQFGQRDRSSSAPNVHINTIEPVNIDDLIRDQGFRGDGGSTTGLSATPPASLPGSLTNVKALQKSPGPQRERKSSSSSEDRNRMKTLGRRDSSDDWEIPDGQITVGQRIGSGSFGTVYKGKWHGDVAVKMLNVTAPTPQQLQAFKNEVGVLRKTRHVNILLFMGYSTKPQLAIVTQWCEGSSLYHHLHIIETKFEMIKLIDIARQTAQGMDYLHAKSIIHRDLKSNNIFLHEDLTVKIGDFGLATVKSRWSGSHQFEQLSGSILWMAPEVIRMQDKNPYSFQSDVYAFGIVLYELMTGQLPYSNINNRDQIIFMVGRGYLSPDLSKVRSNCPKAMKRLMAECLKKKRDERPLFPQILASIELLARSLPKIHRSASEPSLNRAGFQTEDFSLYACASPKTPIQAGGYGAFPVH
Test [19] in a line: Antiproliferative activity against human MDA-PATC53 cells assessed as growth inhibition incubated for 24 hrs by MTT assay. It is filed as functional, cell-based. The note with it: MDA-PATC53, 24 h.
Test [20] has as its system T84. In words: Antiproliferative activity against human T84 cells assessed as growth inhibition incubated at 10 uM for 24 hrs by MTT assay relative to control. The note with it: read-out: GI. It is filed as functional.
A short description of test [21]: Antiproliferative activity against human MDA-PATC53 cells assessed as growth inhibition incubated at 10 uM for 24 hrs by MTT assay relative to control. In kind it is functional. The note with it: read-out: GI.
Test [22] concerns MOLT-4. In words: Antiproliferative activity against human MOLT-4 cells assessed as growth inhibition incubated at 10 uM for 24 hrs by MTT assay relative to control. It is filed as functional. The note with it: read-out: GI.
The target of test [23] is T1, Tyrosine-protein kinase receptor UFO (Homo sapiens, UniProt P30530).
T1 sequence (P30530 whole entry): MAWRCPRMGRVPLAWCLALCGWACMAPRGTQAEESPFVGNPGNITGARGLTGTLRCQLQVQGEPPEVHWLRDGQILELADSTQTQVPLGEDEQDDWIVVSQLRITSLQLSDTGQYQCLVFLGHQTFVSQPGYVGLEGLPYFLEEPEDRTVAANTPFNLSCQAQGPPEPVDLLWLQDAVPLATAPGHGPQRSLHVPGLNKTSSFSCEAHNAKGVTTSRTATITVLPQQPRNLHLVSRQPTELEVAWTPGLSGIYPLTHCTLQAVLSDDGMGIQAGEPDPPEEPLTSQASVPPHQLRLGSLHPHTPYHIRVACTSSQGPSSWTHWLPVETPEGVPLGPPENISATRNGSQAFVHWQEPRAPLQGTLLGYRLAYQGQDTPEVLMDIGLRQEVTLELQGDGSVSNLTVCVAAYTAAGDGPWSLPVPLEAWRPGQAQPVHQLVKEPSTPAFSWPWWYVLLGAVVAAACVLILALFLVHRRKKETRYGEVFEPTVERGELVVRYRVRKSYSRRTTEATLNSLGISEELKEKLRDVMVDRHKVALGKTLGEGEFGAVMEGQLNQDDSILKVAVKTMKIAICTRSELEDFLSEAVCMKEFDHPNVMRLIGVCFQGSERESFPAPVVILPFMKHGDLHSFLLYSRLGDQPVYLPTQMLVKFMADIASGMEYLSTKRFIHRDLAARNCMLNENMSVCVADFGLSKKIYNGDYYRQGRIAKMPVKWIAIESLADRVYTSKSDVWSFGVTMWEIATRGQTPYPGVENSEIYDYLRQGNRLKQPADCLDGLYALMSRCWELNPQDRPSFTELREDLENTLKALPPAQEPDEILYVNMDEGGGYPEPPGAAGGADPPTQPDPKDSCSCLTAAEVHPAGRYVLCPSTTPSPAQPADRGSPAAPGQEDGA
The test can be described thus: Inhibition of AXL (unknown origin) by FRET assay.

Test [24] addresses Tyrosine-protein kinase JAK1 (Homo sapiens, UniProt P23458). The test can be described thus: Inhibition of JAK1 (unknown origin) by FRET assay.

Sequence of Insulin-like growth factor 1 receptor (P08069 31-736 limits assumed): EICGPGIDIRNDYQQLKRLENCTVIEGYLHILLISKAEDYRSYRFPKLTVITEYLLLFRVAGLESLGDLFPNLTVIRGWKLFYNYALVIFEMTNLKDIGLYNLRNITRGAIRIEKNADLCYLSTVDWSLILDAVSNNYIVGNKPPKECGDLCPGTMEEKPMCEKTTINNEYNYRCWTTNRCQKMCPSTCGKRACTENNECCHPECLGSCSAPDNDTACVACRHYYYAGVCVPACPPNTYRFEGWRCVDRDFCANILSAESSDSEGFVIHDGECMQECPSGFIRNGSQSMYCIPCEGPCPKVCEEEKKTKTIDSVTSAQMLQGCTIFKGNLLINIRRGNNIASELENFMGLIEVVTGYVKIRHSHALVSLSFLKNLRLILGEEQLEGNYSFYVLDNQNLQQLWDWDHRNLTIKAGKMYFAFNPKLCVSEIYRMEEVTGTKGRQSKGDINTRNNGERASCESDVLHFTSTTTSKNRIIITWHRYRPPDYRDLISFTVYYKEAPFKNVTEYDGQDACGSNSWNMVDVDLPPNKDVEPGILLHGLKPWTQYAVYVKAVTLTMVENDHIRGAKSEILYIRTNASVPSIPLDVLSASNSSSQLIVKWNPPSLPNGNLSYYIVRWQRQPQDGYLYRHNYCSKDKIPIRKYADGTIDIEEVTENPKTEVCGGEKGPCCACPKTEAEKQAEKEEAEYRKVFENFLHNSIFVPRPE
Sequence of Insulin-like growth factor 1 receptor (P08069 741-1367 limits assumed): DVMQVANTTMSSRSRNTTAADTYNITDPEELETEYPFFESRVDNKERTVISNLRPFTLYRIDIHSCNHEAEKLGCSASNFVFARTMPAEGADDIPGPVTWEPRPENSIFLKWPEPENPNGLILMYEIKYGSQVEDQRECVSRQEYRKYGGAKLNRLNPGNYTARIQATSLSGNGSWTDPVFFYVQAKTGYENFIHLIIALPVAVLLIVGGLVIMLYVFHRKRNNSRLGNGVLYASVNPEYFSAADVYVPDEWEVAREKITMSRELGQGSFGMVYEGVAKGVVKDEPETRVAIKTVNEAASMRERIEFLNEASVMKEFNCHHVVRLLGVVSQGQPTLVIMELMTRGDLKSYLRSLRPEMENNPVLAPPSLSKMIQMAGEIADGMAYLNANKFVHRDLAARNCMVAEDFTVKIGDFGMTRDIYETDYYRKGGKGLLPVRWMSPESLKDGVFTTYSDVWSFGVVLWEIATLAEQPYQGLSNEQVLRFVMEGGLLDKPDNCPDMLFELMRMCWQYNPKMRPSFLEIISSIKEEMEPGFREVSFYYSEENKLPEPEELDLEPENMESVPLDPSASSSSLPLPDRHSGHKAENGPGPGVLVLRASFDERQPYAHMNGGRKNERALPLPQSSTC
Sequence of Cyclin-dependent kinase 1 (P06493 whole entry): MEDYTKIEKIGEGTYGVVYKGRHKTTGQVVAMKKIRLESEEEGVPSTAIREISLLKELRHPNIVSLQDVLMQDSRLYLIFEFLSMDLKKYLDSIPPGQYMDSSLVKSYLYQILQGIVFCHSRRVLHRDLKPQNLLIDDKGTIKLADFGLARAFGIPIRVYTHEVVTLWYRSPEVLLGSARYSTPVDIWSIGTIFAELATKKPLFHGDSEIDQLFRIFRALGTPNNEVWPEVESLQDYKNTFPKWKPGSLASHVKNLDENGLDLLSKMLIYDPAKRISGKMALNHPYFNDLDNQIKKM
Sequence of Tyrosine-protein kinase JAK1 (P23458 whole entry): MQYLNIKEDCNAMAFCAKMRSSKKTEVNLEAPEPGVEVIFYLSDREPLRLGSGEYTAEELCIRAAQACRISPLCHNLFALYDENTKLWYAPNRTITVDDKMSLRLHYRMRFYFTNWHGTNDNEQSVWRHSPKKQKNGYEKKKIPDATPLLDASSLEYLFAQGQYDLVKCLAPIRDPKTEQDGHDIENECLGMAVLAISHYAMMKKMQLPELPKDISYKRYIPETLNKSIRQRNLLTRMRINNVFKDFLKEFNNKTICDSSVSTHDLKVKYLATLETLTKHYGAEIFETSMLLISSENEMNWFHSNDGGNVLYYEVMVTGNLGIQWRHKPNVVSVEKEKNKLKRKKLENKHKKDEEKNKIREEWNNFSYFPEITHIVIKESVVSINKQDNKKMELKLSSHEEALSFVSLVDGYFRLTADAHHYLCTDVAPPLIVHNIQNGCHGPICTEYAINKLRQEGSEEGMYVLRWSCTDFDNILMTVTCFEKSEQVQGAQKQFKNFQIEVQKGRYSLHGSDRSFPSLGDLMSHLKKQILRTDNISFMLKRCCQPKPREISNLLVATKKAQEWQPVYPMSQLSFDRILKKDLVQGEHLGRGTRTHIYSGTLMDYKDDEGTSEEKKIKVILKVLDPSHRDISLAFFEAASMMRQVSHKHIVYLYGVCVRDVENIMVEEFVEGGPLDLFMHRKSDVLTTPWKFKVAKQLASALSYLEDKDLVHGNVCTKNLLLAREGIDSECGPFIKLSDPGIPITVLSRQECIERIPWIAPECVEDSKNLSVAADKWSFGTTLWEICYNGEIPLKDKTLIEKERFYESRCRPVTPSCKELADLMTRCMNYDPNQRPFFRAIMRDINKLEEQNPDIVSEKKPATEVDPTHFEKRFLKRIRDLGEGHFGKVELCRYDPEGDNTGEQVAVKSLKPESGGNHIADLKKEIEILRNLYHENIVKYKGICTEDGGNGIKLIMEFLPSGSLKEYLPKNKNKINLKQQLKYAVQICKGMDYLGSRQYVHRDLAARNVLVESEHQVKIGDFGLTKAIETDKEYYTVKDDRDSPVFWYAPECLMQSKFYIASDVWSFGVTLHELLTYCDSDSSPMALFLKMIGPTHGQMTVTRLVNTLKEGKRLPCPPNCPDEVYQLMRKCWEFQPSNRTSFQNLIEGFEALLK

Take `O=C(Nc1ccc(Cl)c(C(F)(F)F)c1)N1CCN(c2nnc(Cc3ccccc3)c3ccccc23)CC1`: the IC50 in test [1] came to 13000 nM; in test [9] it was 722 nM; in test [10], 4250 nM; in test [11] it was 405 nM; in test [12] it was 104 nM; in [15] it was 2680 nM. Besides, the IC50 came out at 8565 nM in test [17]; 1480 nM in test [18]; 8600 nM in test [19]; 6950 nM in test [23]; 5180 nM in [24]. The inhibition of growth at 10 µM in test [2] turned out to be 1.08%; in test [3], 9.17%; in [5], 18.9%; in [6], 1.35%; in test [7], 3.34%; in test [13], 2.2%. The inhibition of growth at 10 µM in test [14] came out at 2.47%; in test [16], 42.4%; in test [20] it was 4.71%; in [21], 55.4%; in test [22] it was 5.22%. In addition, the figures for the Ratio IC50 in test [4] and in test [8] were 3.91 and 6.97, respectively.

In the case of `COc1ccc(Cc2nnc(N3CCN(C(=O)Nc4ccccc4)CC3)c3ccccc23)cc1`, the IC50 in [1] was found to be 2980 nM; in [9] it was 515 nM; in [10], 5420 nM; in [11], 601 nM; in test [12], 83.2 nM; in test [15], 5820 nM. The 50% inhibitory concentration (IC50) in test [17] is 2628 nM; in test [18] it was 4750 nM; in test [19], 11300 nM; in [23] it was 2370 nM; in test [24], 2050 nM. Also, the inhibition of growth at 10 µM is 56% in test [2]; 36.1% in test [3]; 51.3% in [5]; 49.7% in [6]; 27.1% in test [7]; 33.4% in test [13]. Moreover, the inhibition of growth at 10 µM in [14] was determined as 29.8%; in [16], 73.6%; in test [20], 53.6%; in test [21] it was 46.3%; in test [22], 27.8%. The Ratio IC50 in [4] is 7.22; in test [8], 6.19.

Turning to `CCc1cnn2c(NCc3ccc[n+]([O-])c3)cc(N3CCCC[C@H]3CCO)nc12` [DINACICLIB], the IC50 in [1] is 15 nM; in test [19], 24 nM.

For `O=C(Nc1ccc(Cl)cc1)N1CCN(c2nnc(Cc3ccccc3)c3ccccc23)CC1`, the IC50 was 2210 nM in test [1]; 103 nM in [9]; 3150 nM in test [10]; 826 nM in [11]; 58.4 nM in test [12]; 1330 nM in test [15]. The IC50 in [17] came out at 6346 nM; in test [18], 3650 nM; in test [19], 5300 nM; in test [23], 8750 nM; in [24], 4550 nM. Moreover, the inhibition of growth at 10 µM was determined as 23% in test [2]; 66.3% in test [3]; 81.2% in test [5]; 57.9% in test [6]; 50.1% in [7]; 64.8% in test [13]. Further, the inhibition of growth at 10 µM in test [14] worked out at 47%; in test [16] it was 81.8%; in [20] it was 29.4%; in [21], 67.4%; in test [22], 33%. Moreover, the values for the Ratio IC50 in test [4] and in test [8] were 14.2 and 1.76, respectively.

In the case of `O=C(Nc1ccccc1)N1CCN(c2nnc(Cc3ccccc3)c3ccccc23)CC1`, the IC50 was 1650 nM in [1]; 286 nM in [9]; 1270 nM in [10]; 159 nM in test [11]; 53.8 nM in test [12]; 2490 nM in test [15]. Besides, the IC50 in [17] was found to be 2579 nM; in test [18] it was 9310 nM; in [19], 2970 nM; in test [23] it was 7530 nM; in test [24], 3630 nM. In addition, the inhibition of growth at 10 µM amounted to 76.5% in test [2]; 62% in test [3]; 36.2% in test [5]; 29.7% in test [6]; 49.7% in test [7]; 18.4% in test [13]. Further, the inhibition of growth at 10 µM in test [14] was 23.8%; in test [16] it was 87.4%; in test [20], 63.1%; in [21] it was 77.9%; in test [22], 41%. The Ratio IC50 came to 2.95 in test [4] and 5.31 in [8].

For `O=C(c1ccc(Cl)cc1)N1CCN(c2nnc(Cc3ccccc3)c3ccccc23)CC1`, the IC50 in test [1] was found to be 8450 nM; in test [9], 138 nM; in [10], 8750 nM; in test [11], 835 nM; in test [12], 114 nM; in test [15], 3500 nM. The IC50 in test [17] was found to be 2628 nM; in [18], 1480 nM; in test [19] it was 13000 nM; in [23] it was 3510 nM; in test [24] it was 3390 nM. Further, the inhibition of growth at 10 µM came out at 0.65% in test [2]; 15.3% in test [3]; 4.9% in [5]; 8.36% in test [6]; 10.4% in [7]; 18.6% in test [13]. For the same compound, the inhibition of growth at 10 µM in test [14] is 24.7%; in [16], 57.4%; in test [20], 16.7%; in [21], 45.1%; in [22], 12.1%. Moreover, the values for the Ratio IC50 in test [4] and in test [8] were 7.32 and 1.21, respectively.

Turning to `O=C(c1ccccc1)N1CCN(c2nnc(Cc3ccccc3)c3ccccc23)CC1`, the IC50 in [1] worked out at 5030 nM; in [9], 115 nM; in test [10], 3660 nM; in test [11], 276 nM; in test [12] it was 62.5 nM; in test [15], 3570 nM. The IC50 in test [17] came out at 5254 nM; in test [18] it was 7820 nM; in [19] it was 3420 nM; in test [23], 4880 nM; in test [24], 7180 nM. Besides, the inhibition of growth at 10 µM in test [2] worked out at 24.3%; in test [3], 32.1%; in test [5] it was 40.4%; in test [6] it was 73.6%; in test [7] it was 54.9%; in test [13], 38.4%. The inhibition of growth at 10 µM in test [14] amounted to 47.9%; in [16] it was 68.5%; in test [20], 26.3%; in test [21] it was 75.8%; in test [22] it was 51.2%. Also, the Ratio IC50 in test [4] stood at 4.41; in test [8], 1.84.
